From patent US20150246024A1 (priority 2012, published 2015)
≈ marks a conversion by molar mass, not a printed value. Entries after “also recorded” stand apart in the source; their conditions may differ. Read-outs that look alike come from different tables or passages of the source.

Tests used:
B. anthracis Sterne = experiment: microbe, parasite or virus in culture; type: cell-based
[1] = target: Recombinant S. aureus LtaSSA expressed in E. coli (Staphylococcus aureus, UniProt Q2G093); type: cell-based
Sequence of Recombinant S. aureus LtaSSA expressed in E. coli (Q2G093 whole entry): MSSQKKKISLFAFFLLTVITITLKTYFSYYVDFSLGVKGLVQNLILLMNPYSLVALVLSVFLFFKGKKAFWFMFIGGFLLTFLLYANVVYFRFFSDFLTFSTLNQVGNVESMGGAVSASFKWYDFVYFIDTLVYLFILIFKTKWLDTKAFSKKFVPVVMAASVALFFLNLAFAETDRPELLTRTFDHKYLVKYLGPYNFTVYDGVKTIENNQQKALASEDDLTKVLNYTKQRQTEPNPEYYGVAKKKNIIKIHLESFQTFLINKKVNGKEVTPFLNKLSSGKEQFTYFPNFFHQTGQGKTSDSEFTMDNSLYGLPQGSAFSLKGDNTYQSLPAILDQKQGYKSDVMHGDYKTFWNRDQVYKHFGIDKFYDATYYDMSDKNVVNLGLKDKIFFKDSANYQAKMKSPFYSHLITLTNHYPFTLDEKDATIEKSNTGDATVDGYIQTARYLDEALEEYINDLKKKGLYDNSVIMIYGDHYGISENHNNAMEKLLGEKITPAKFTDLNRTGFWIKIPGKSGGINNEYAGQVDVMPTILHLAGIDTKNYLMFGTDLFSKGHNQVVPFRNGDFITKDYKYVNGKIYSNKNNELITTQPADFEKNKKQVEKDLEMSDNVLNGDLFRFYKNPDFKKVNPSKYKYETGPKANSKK

S. aureus - MRSA USA300 = experiment: microbe, parasite or virus in culture; type: cell-based
S. aureus RN4220 [2] = experiment: Growth of S. aureus culture with sub-lethal compound (OD600); settings: 1 μM compound, until control culture OD600 1.0
S. aureus RN4220 (MSSA) = experiment: microbe, parasite or virus in culture; type: cell-based
[3] = tested on: LTA production in S. aureus; experiment: Inhibition of LTA synthesis in S. aureus (immunoblot); settings: sub-lethal concentrations of compound
E. faecalis - VRE V583 = experiment: microbe, parasite or virus in culture; type: cell-based
E. faecium - VRE TX0016 = experiment: microbe, parasite or virus in culture; type: cell-based
S. aureus RN4220 [4] = experiment: High throughput screen for growth inhibitors, 384-well; type: cell-based; settings: Staphylococcus aureus, positive control, vs medium alone
Protocol: The antibiotic sensitive strain S. aureus RN4220 was used to screen for small molecule growth inhibitors in a high throughput-screening assay using 384-well microplates. Cation-adjusted Hinton Mueller II broth supplemented with 0.005% Tween-80 was inoculated with a single colony of S. aureus RN4220. Following overnight incubation, the culture was diluted 1:100 in fresh medium and incubation was continued until the bacterial suspension reached an optical density at 600 nm (OD600) of 0.6 corresponding to a bacterial titer of 5×10^8 colony forming units (CFU) per ml. An aliquot of this culture was diluted 1:400 with fresh medium and stored on ice until it could be dispensed in 384-well plates. Small-scale experiments were conducted to determine the Z′-factor (1-[(3SD^−)+(3SD^+)/(Ave^−)−(Ave^+)]) used commonly for quality assessment of raw data sets generated in high-throughput screening. In this formula, (SD^+/−) and (Ave^+/−) represent standard deviation and average of positive and negative controls. […] The OD600 in each well was recorded after 20 hours incubation. […] After 20 hours, the OD600 was measured using a plate reader in absorbance mode. […]
S. aureus lacking the ltaS gene is unable to grow at temperatures […]. […] The quality of the screen was assessed for every assay plate with the Z′-factor, a measure for data variability within the dynamic range of the assay (Zhang et al. 1999). […]

[5] = 37° C., 18-22 hours, OD600, sigmoidal fit, read-out: IC50

Row | SMILES | IC50 (B. anthracis Sterne; Bacillus anthracis) | MIC (B. anthracis Sterne; Bacillus anthracis) | IC50 (S. aureus RN4220 (MSSA); Staphylococcus aureus, MSSA) | MIC (S. aureus RN4220 (MSSA); Staphylococcus aureus, MSSA) | also measured
1 | COc1cccc(-c2nnc(NC(=O)c3ccc(S(=O)(=O)N(Cc4ccccc4)C(C)C)cc3)o2)c1 [4-(N-benzyl-N-isopropylsulfamoyl)-N-(5-(3-methoxyphenyl)-1,3,4-oxadiazol-2-yl)benzamide] | 1 µM | 1.6 µM (≈ 0.811 µg/mL) | 1.2 µM | 3.1 µM (≈ 1.57 µg/mL) | production of LTA promoted by plasmid encoded LtaSSA [1]: abrogated; IC50 (S. aureus - MRSA USA300; Staphylococcus aureus): 1.3 µM; MIC (S. aureus - MRSA USA300; Staphylococcus aureus): 3.1 µM (≈ 1.57 µg/mL); reduced growth of staphylococci (S. aureus RN4220 [2]): 75%; LTA production (immunoblot α-LTA) [3]: affect the production of LTA; also recorded: reduced; IC50 (E. faecalis - VRE V583; Enterococcus faecalis, VRE): 18.5 µM; MIC (E. faecalis - VRE V583; Enterococcus faecalis, VRE): 50 µM (≈ 25.3 µg/mL); IC50 (E. faecium - VRE TX0016; Enterococcus faecium, VRE): 7.3 µM; MIC (E. faecium - VRE TX0016; Enterococcus faecium, VRE): 50 µM (≈ 25.3 µg/mL)
2 | COc1cc(OC)cc(-c2nnc(NC(=O)c3ccc(S(=O)(=O)N(C)c4ccccc4)cc3)o2)c1 [Compound 1650-I01, N-(5-(3,5-dimethoxyphenyl)-1,3,4-oxadiazol-2-yl)-4-(N-methyl-N-henylsulfamoyl)benzamide] |  |  |  |  | MIC (B. anthracis Sterne; 37° C., 18-22 hours, OD600): 3.1 µM (≈ 1.53 µg/mL); IC50 (B. anthracis Sterne; [5]): 1.5 µM; production of LTA promoted by plasmid encoded LtaSSA [1]: abrogated; MIC (S. aureus - MRSA USA300; 37° C., 18-22 hours, OD600): 6.2 µM (≈ 3.07 µg/mL); IC50 (S. aureus - MRSA USA300; [5]): 1.7 µM; reduced growth of staphylococci (S. aureus RN4220 [2]): 50%; MIC (S. aureus RN4220 (MSSA); 37° C., 18-22 hours, OD600): 3.1 µM (≈ 1.53 µg/mL); IC50 (S. aureus RN4220 (MSSA); [5]): 1.3 µM; LTA production (immunoblot α-LTA) [3]: affect the production of LTA; also recorded: reduced; MIC (E. faecalis - VRE V583; 37° C., 18-22 hours, OD600): 100.0 µM (≈ 49.5 µg/mL); IC50 (E. faecalis - VRE V583; [5]): 55.6 µM; MIC (E. faecium - VRE TX0016; 37° C., 18-22 hours, OD600): 100.0 µM (≈ 49.5 µg/mL); IC50 (E. faecium - VRE TX0016; [5]): 14.6 µM
3 | CC1CCCCN1S(=O)(=O)c1ccc(C(=O)Nc2nnc(-c3cccs3)o2)cc1 (stereo not shown) [Compound 1650-M01, 4-(2-methylpiperidin-1-ylsulfonyl)-N-(5-(thiophen-2-yl)-1,3,4-oxadiazol-2-yl)benzamide] | 11.1 µM | 25 µM (≈ 10.8 µg/mL) | 7.1 µM | 25 µM (≈ 10.8 µg/mL) | production of LTA promoted by plasmid encoded LtaSSA [1]: abrogated; MIC (S. aureus - MRSA USA300; 37° C., 18-22 hours, OD600): 25.0 µM (≈ 10.8 µg/mL); IC50 (S. aureus - MRSA USA300; Staphylococcus aureus): 8.4 µM; MIC (S. aureus - MRSA USA300; Staphylococcus aureus): 25 µM (≈ 10.8 µg/mL); IC50 (E. faecalis - VRE V583; Enterococcus faecalis, VRE): 36.7 µM; MIC (E. faecalis - VRE V583; Enterococcus faecalis, VRE): 100 µM (≈ 43.3 µg/mL); IC50 (E. faecium - VRE TX0016; Enterococcus faecium, VRE): 19.4 µM; MIC (E. faecium - VRE TX0016; Enterococcus faecium, VRE): 100 µM (≈ 43.3 µg/mL)
4 | CC(=O)COC(=O)Cc1coc2ccc3ccccc3c12 [Compound 1771-1, 2-oxopropyl 2-(naphtho[2,1-b]furan-1-yl)acetate] | 169 µM | > 400 µM | > 400 µM | > 400 µM | 
5 | CNC(=O)COC(=O)Cc1coc2ccc3ccccc3c12 [Compound 1771-2, 2-(methylamino)-2-oxoethyl 2-(naphtho[2,1-b]furan-1-yl)acetate] | > 400 µM | > 400 µM | > 400 µM | > 400 µM | 
6 | CC(NC(=O)COC(=O)Cc1coc2ccc3ccccc3c12)c1ccccc1 (stereo not shown) [Compound 1771-3, 2-oxo-2-(1-phenylethylamino)ethyl 2-(naphtho[2,1-b]furan-1-yl)acetate] | > 400 µM | > 400 µM | > 400 µM | > 400 µM | 
7 | O=C(COC(=O)Cc1ccccc1)Nc1nnc(-c2ccccc2)o1 [Compound 1771-4, 2-oxo-2-(5-phenyl-1,3,4-oxadiazol-2-ylamino)ethyl 2-phenylacetate] | 224 µM | > 400 µM | 242 µM | > 400 µM | 
8 | O=C(COC(=O)Cc1c[nH]c2ccccc12)Nc1nnc(-c2ccccc2)o1 [Compound 1771-5, 2-oxo-2-(5-phenyl-1,3,4-oxadiazol-2-ylamino)ethyl 2-(1H-indol-3-yl)acetate] | 88.1 µM | 200 µM (≈ 75.3 µg/mL) | 85.6 µM | > 400 µM | 
9 | Cc1cc2occ(CC(=O)OCC(=O)Nc3nnc(-c4ccccc4)o3)c2cc1C [Compound 1771-6, 2-oxo-2-(5-phenyl-1,3,4-oxadiazol-2-ylamino)ethyl 2-(5,6-dimethylbenzofuran-3-yl)acetate] | 14.8 µM | 25 µM (≈ 10.1 µg/mL) | 15.2 µM | 50 µM (≈ 20.3 µg/mL) | 
10 | O=C(COC(=O)Cc1coc2cc3c(cc12)CCC3)Nc1nnc(-c2ccccc2)o1 [Compound 1771-7, 2-oxo-2-(5-phenyl-1,3,4-oxadiazol-2-ylamino)ethyl 2-(6,7-dihydro-5H-indeno[5,6-b]furan-3-yl)acetate] | 24.1 µM | 50 µM (≈ 20.9 µg/mL) | 27.7 µM | 50 µM (≈ 20.9 µg/mL) | 
11 | O=C(N[C@H](CO)[C@H](O)c1ccc([N+](=O)[O-])cc1)C(Cl)Cl [chloramphenicol] |  |  |  |  | inhibition at 80 µM (S. aureus RN4220 [4]): 100%
